Key:
[1] = tested on: Prostate; assay: NCI SRB cytotoxicity, prostate panel average; format: cell-based, human; settings: average of cell lines
Procedure: (§1) The pyrazolochalcones (7e, 8e, 10e, 11e, 12e, 13e and 8f) have been tested against fifty nine human tumor cell lines derived from nine cancer types (leukemia, non-small cell lung cancer, colon cancer, CNS cancer, melanoma, ovarian cancer, renal cancer, prostate cancer and breast cancer) as per the NCI protocol. For each compound, dose response curves for individual cell lines have been measured at a minimum of five concentrations at 10 fold dilutions. A protocol of 48 h continuous drug exposure has been used, and a sulforhodamine B (SRB) protein assay has been used to estimate cell viability or growth. The concentration for 50% cell growth inhibition (GI50), 50% cell death (LC50, 50% growth) and total cell growth inhibition (TGI, 0% growth) values were tabulated (Table-1). DMSO was used as control to calculate the values of GI50, LC50 and TGI. The compounds 7e, 8e, 10e, 11e, 12e, 13e and 8f has been evaluated for their in vitro cytotoxicity in […] cell lines from nine human cancer types of leukemia (K-562, SR), non-small cell lung (Hop-62, NCI-H226, NCI-H522), colon (HCT-116, HCT-15, HCC-2998), CNS (SF-539), melanoma (SK-MEL-5, UACC-62, M14), ovarian (IGROV1), renal (A498), prostate (PC3) and breast (BT-549, MDA-MB-435, HS578T) origin. The results are expressed as percent of cell growth determined relative to that of untreated control cells (Table 2).
(§2) Each cancer type represents the average of six to eight different cancer cell lines.

[2] = tested on: NCI/ADR-RES; assay: NCI SRB cytotoxicity, ovarian NCI/ADR-RES; format: cell-based; settings: Homo sapiens, 48 h exposure
Procedure: as §1

[3] = tested on: MOLT-4; assay: NCI SRB cytotoxicity, leukemia MOLT-4; format: cell-based; settings: Homo sapiens, 48 h exposure
Procedure: as §1

[4] = tested on: UO-31; assay: NCI SRB cytotoxicity, renal UO-31; format: cell-based; settings: Homo sapiens, 48 h exposure
Procedure: as §1

[5] = tested on: SK-MEL-28; assay: NCI SRB cytotoxicity, melanoma SK-MEL-28; format: cell-based; settings: Homo sapiens, 48 h exposure
Procedure: as §1

[6] = tested on: SK-MEL-5; assay: NCI SRB cytotoxicity, melanoma SK-MEL-5; format: cell-based; settings: Homo sapiens, 48 h exposure
Procedure: as §1

[7] = tested on: MDA-MB-435; assay: NCI SRB cytotoxicity, melanoma MDA-MB-435; format: cell-based; settings: Homo sapiens, Melanoma panel MDA-MB-435, 48 h exposure
Procedure: as §1

[8] = tested on: Melanoma; assay: NCI SRB cytotoxicity, melanoma panel average; format: cell-based, human; settings: average of cell lines
Procedure: as §1, §2

[9] = tested on: MCF7; assay: NCI SRB cytotoxicity, breast MCF7; format: cell-based; settings: Homo sapiens, 48 h exposure
Procedure: as §1

[10] = tested on: M14; assay: NCI SRB cytotoxicity, melanoma M14; format: cell-based; settings: Homo sapiens, 48 h exposure
Procedure: as §1

[11] = tested on: OVCAR-8; assay: NCI SRB cytotoxicity, ovarian OVCAR-8; format: cell-based; settings: Homo sapiens, 48 h exposure
Procedure: as §1

[12] = tested on: HCT-116; assay: NCI SRB cytotoxicity, colon HCT-116; format: cell-based; settings: Homo sapiens, 48 h exposure
Procedure: as §1

[13] = tested on: ACHN; assay: NCI SRB cytotoxicity, renal ACHN; format: cell-based; settings: Homo sapiens, 48 h exposure
Procedure: as §1

[14] = tested on: HL-60(TB); assay: NCI SRB cytotoxicity, leukemia HL-60(TB); format: cell-based; settings: Homo sapiens, 48 h exposure
Procedure: as §1

[15] = tested on: Colon; assay: NCI SRB cytotoxicity, colon panel average; format: cell-based, human; settings: average of cell lines
Procedure: as §1, §2

[16] = tested on: HT29; assay: NCI SRB cytotoxicity, colon HT29; format: cell-based; settings: Homo sapiens, HT-29, 48 h exposure
Procedure: as §1

[17] = tested on: IGROV1; assay: NCI SRB cytotoxicity, ovarian IGROV1; format: cell-based; settings: Homo sapiens, IGROV-1, 48 h exposure
Procedure: as §1

[18] = tested on: SNB-19; assay: NCI SRB cytotoxicity, CNS SNB-19; format: cell-based; settings: Homo sapiens, 48 h exposure
Procedure: as §1

[19] = tested on: NCI-H522; assay: NCI SRB cytotoxicity, non-small cell lung NCI-H522; format: cell-based; settings: Homo sapiens, 48 h exposure
Procedure: as §1

[20] = tested on: 786-0; assay: NCI SRB cytotoxicity, renal 786-0; format: cell-based; settings: Homo sapiens, 48 h exposure
Procedure: as §1

[21] = tested on: Non-small cell lung; assay: NCI SRB cytotoxicity, non-small cell lung panel average; format: cell-based, human; settings: average of cell lines
Procedure: as §1, §2

[22] = tested on: K-562; assay: NCI SRB cytotoxicity, leukemia K-562; format: cell-based; settings: Homo sapiens, K562, 48 h exposure
Procedure: as §1

[23] = tested on: CCRF-CEM; assay: NCI SRB cytotoxicity, leukemia CCRF-CEM; format: cell-based; settings: Homo sapiens, 48 h exposure
Procedure: as §1

[24] = tested on: SK-MEL-2; assay: NCI SRB cytotoxicity, melanoma SK-MEL-2; format: cell-based; settings: Homo sapiens, 48 h exposure
Procedure: as §1

[25] = tested on: SK-OV-3; assay: NCI SRB cytotoxicity, ovarian SK-OV-3; format: cell-based; settings: Homo sapiens, 48 h exposure
Procedure: as §1

[26] = tested on: OVCAR-3; assay: NCI SRB cytotoxicity, ovarian OVCAR-3; format: cell-based; settings: Homo sapiens, 48 h exposure
Procedure: as §1

[27] = tested on: LOX IMVI; assay: NCI SRB cytotoxicity, melanoma LOX IMVI; format: cell-based; settings: Homo sapiens, 48 h exposure
Procedure: as §1

[28] = tested on: MALME-3M; assay: NCI SRB cytotoxicity, melanoma MALME-3M; format: cell-based; settings: Homo sapiens, 48 h exposure
Procedure: as §1

[29] = tested on: PC-3; assay: NCI SRB cytotoxicity, prostate PC-3; format: cell-based; settings: Homo sapiens, 48 h exposure
Procedure: as §1

[30] = tested on: T-47D; assay: NCI SRB cytotoxicity, breast T-47D; format: cell-based; settings: Homo sapiens, T47D, 48 h exposure
Procedure: as §1

[31] = tested on: RXF 393; assay: NCI SRB cytotoxicity, renal RXF 393; format: cell-based; settings: Homo sapiens, 48 h exposure
Procedure: as §1

[32] = tested on: SNB-75; assay: NCI SRB cytotoxicity, CNS SNB-75; format: cell-based; settings: Homo sapiens, 48 h exposure
Procedure: as §1

[33] = tested on: COLO-205; assay: NCI SRB cytotoxicity, colon COLO-205; format: cell-based; settings: Homo sapiens, 48 h exposure
Procedure: as §1

[34] = tested on: BT-549; assay: NCI SRB cytotoxicity, breast BT-549; format: cell-based; settings: Homo sapiens, 48 h exposure
Procedure: as §1

[35] = tested on: SF-539; assay: NCI SRB cytotoxicity, CNS SF-539; format: cell-based; settings: Homo sapiens, 48 h exposure
Procedure: as §1

[36] = tested on: Renal; assay: NCI SRB cytotoxicity, renal panel average; format: cell-based, human; settings: average of cell lines
Procedure: as §1, §2

[37] = tested on: NCIH322M; assay: NCI SRB cytotoxicity, non-small cell lung NCIH322M; format: cell-based; settings: Homo sapiens, NCI-H322M, 48 h exposure
Procedure: as §1

[38] = tested on: Breast; assay: NCI SRB cytotoxicity, breast panel average; format: cell-based, human; settings: average of cell lines
Procedure: as §1, §2

[39] = Homo sapiens, read-out: Log10 GI50 (concentration in mol/L causing 50% growth inhibition) (converted)
[40] = Homo sapiens, read-out: Log10 LC50 (concentration in mol/L causing 50% cell death) (converted)

Compound: COc1cc(-c2cc(/C=C/C(=O)c3ccc(Cl)c(Cl)c3)[nH]n2)cc(OC)c1OC [12e, (E)-1-(3,4-dichlorophenyl)-3-(3-(3,4,5-trimethoxyphenyl)-1H-pyrazol-5-yl)prop-2-en-1-one]
- GI50 [1, 39]: 5.89 µM
- CC50 [1, 40]: 0.0001 mol/L
- Log10 TGI (concentration in mol/L causing total growth inhibition (0% growth)) [1]: −4.00 mol/L
- GI50 [2]: 10.6 µM
- GI50 [3]: 4.38 µM
- GI50 [4]: 5.73 µM
- GI50 [5]: 18.5 µM
- GI50 [6]: 13.4 µM
- GI50 [7]: 5.65 µM
- GI50 [8, 39]: 13.2 µM
- LC50 [8, 40]: 95.5 µM
- Log10 TGI (concentration in mol/L causing total growth inhibition) [8]: −4.21 mol/L
- GI50 [9]: 1.8 µM
- GI50 [10]: 18.2 µM
- GI50 [11]: 6.3 µM
- GI50 [12]: 2.95 µM
- GI50 [13]: 21.4 µM
- GI50 [14]: 7.18 µM
- GI50 [15, 39]: 4.79 µM
- LC50 [15, 40]: 0.0001 mol/L
- Log10 TGI (concentration in mol/L causing total growth inhibition) [15]: −4.34 mol/L
- GI50 [16]: 1.15 µM
- GI50 [17]: 24 µM
- GI50 [18]: 9.83 µM
- GI50 [19]: 1.33 µM
- GI50 [20]: 10.1 µM
- GI50 [21, 39]: 6.61 µM
- LC50 [21, 40]: 0.0002 mol/L
- Log10 TGI (concentration in mol/L causing total growth inhibition (0% growth)) [21]: −4.52 mol/L
- GI50 [22]: 4.96 µM
- GI50 [23]: 2.15 µM
- GI50 [24]: 13.9 µM
- GI50 [25]: 4.19 µM
- GI50 [26]: 6.99 µM
- GI50 [27]: 3.39 µM
- GI50 [28]: 29.2 µM
- GI50 [29]: 5.95 µM
- GI50 [30]: 1.66 µM
- GI50 [31]: 2.7 µM
- GI50 [32]: 8.7 µM
- GI50 [33]: 1.26 µM
- GI50 [34]: 8.4 µM
- GI50 [35]: 4.31 µM
- GI50 [36, 39]: 8.91 µM
- CC50 [36, 40]: 93.3 µM
- Log10 TGI (concentration in mol/L causing total growth inhibition (0% growth)) [36]: −4.22 mol/L
- GI50 [37]: 14.5 µM
- GI50 [38, 39]: 4.47 µM
- CC50 [38, 40]: 0.0001 mol/L
- Log10 TGI (concentration in mol/L causing total growth inhibition (0% growth)) [38]: −4.41 mol/L
